Patent publication US20260015344A1, “PAN-KRAS INHIBITORS” (Mirati Therapeutics, Inc., priority 2022, published 2026)

How the values were obtained:
KRas^G12V = molecular target: T1, KRas^G12V (Homo sapiens, UniProt P01116, G12V); assay: KRas Binding Assay (TR-FRET displacement), KRas G12V; conditions: TR-FRET tracer displacement
T1 construct: corresponding to amino acids 1-169, produced at Accelegan Inc; biotin (biotinylated); purchased Accelegan Inc
Experimental: (§1) This Example illustrates that exemplary compounds of the present invention bind to KRas and are capable of displacing a labeled tracer ligand occupying the KRas binding site. KRas^WT, KRas^G12A, KRas^G12C, KRas^G12D, KRas^G12R, KRas^G12S, KRas^G12V, KRas^G13D, or KRas^Q61H was used in the assay.
(§2) The ability of a compound to bind to KRas was measured using a TR-FRET displacement assay. Biotinylated KRas (corresponding to amino acids 1-169, produced at Accelegan Inc.) was incubated with custom made Cy5 labelled tracer, terbium streptavidin (Cisbio Inc.) and compound (1% DMSO final) in buffer (50 mM HEPES, pH 7.5, 5 mM MgCl2, 0.005% Tween-20 and 1 mM DTT). After a 60-minute incubation at room temperature, the reaction was measured using a BMG LABTECH CLARIO star Plus via TR-FRET. […] The POC values were fit to a 4-parameter IC50 equation and the IC50 value reported.

KRas^G12S = molecular target: T2, KRas^G12S (Homo sapiens, UniProt P01116, G12S); assay: KRas Binding Assay (TR-FRET displacement), KRas G12S; conditions: TR-FRET tracer displacement
T2 construct: corresponding to amino acids 1-169, produced at Accelegan Inc; biotin (biotinylated); purchased Accelegan Inc
Experimental: as §1, §2

KRas^G12D = molecular target: T3, KRas^G12D (Homo sapiens, UniProt P01116, G12D); assay: KRas Binding Assay (TR-FRET displacement), KRas G12D; conditions: TR-FRET tracer displacement
T3 construct: corresponding to amino acids 1-169, produced at Accelegan Inc; biotin (biotinylated); purchased Accelegan Inc
Experimental: as §1, §2

KRas^G12A = molecular target: T4, KRas^G12A (Homo sapiens, UniProt P01116, G12A); assay: KRas Binding Assay (TR-FRET displacement), KRas G12A; conditions: TR-FRET tracer displacement
T4 construct: corresponding to amino acids 1-169, produced at Accelegan Inc; biotin (biotinylated); purchased Accelegan Inc
Experimental: as §1, §2

KRas^WT = molecular target: T5, KRas^WT (Homo sapiens, UniProt P01116); assay: KRas Binding Assay (TR-FRET displacement), KRas WT; conditions: TR-FRET tracer displacement
T5 construct: corresponding to amino acids 1-169, produced at Accelegan Inc; biotin (biotinylated); purchased Accelegan Inc
Experimental: as §1, §2

KRas^G12C = molecular target: T6, KRas^G12C (Homo sapiens, UniProt P01116, G12C); assay: KRas Binding Assay (TR-FRET displacement), KRas G12C; conditions: TR-FRET tracer displacement
T6 construct: corresponding to amino acids 1-169, produced at Accelegan Inc; biotin (biotinylated); purchased Accelegan Inc
Experimental: as §1, §2

KRas^Q61H = molecular target: T7, KRas^Q61H (Homo sapiens, UniProt P01116, Q61H); assay: KRas Binding Assay (TR-FRET displacement), KRas Q61H; conditions: TR-FRET tracer displacement
T7 construct: corresponding to amino acids 1-169, produced at Accelegan Inc; biotin (biotinylated); purchased Accelegan Inc
Experimental: as §1, §2

KRas^G12R = molecular target: T8, KRas^G12R (Homo sapiens, UniProt P01116, G12R); assay: KRas Binding Assay (TR-FRET displacement), KRas G12R; conditions: TR-FRET tracer displacement
T8 construct: corresponding to amino acids 1-169, produced at Accelegan Inc; biotin (biotinylated); purchased Accelegan Inc
Experimental: as §1, §2

KRas^G13D = molecular target: T9, KRas^G13D (Homo sapiens, UniProt P01116, G13D); assay: KRas Binding Assay (TR-FRET displacement), KRas G13D; conditions: TR-FRET tracer displacement
T9 construct: corresponding to amino acids 1-169, produced at Accelegan Inc; biotin (biotinylated); purchased Accelegan Inc
Experimental: as §1, §2

[1] = test system: KRas-mediated Phosphorylation of ERK in AsPC-1 cells; assay: HTRF pERK assay, AsPC-1 cells; format: cell-based; conditions: Homo sapiens, ASPC1, 3 hrs compound incubation, read-out: Inhibition (HTRF IC50 nM) of KRas-mediated Phosphorylation of ERK, AsPC-1
Experimental: (§3) • Day 1: Seed 6,000 cells/well-25 μl/well in 384-well white solid bottom plate; RPM1_10% FBS.
(§4) • 1. To harvest cells from flask using 0.05% Trypsin/EDTA solution. Add 10 mL of media to stop trypsinizing. Pipette the cells into a conical bottom 50 mL centrifuge tube and centrifuge 5 min×1000 rpm. • 2. Re-suspend the cell pellet in media, take a cell count, and then adjust the cell density using fresh media. • 3. Seed 6,000 cells into cell culture plate with 50 μL media. The • 4. Incubate cell plate overnight in a 37° C., 5% CO2 incubator.
(§5) • 1. Use Tecan to complete the compound addition. Compounds start from 10 uM top, 3-fold dilution, and 10 doses. The final DMSO concentration is 0.8%. Dispensed 0.2 uM Trametinib as Min control. • 2. Incubate cell plate for 3 hrs in the incubator. Detection with Cisbio pERK HTRF Kit • 1. Dilute 1 volume of 4× lysis buffer with 3 volumes of deionized water. Then, add 100× the blocking reagent. Keep lysis buffer on the ice. • 2. At the end of the compound treatment, flick-off the media. • 3. Add 35 μL of lysis buffer per well using a Multidrop Combi. Then place on a plate agitator shaking at 300 rpm at 4° C. for 40 mins. • 4. Make up the HTRF antibody buffer. For each assay plate, mix 50 μL of d2-conjugate antibody with 950 μL of detection buffer. Similarly, mix 50 μL of Cryptate antibody with 950 μL of detection buffer. Then mix the two diluted antibodies together. • 5. Dispense 3.4 μL the antibody buffer to wells of an empty assay plate. Seal the plate and centrifuge plate 30 sec×1000 rpm. • 6. At the end of the 4° C. lysis, centrifuge the lysate plates 3 mins×1500 rpm. • 7. Use the Bravo to transfer 13.6 μL of lysate from cell culture plate to assay plate. Then incubate assay plate for 2 hrs at room temperature. • 8. At the end of incubation, read plate on the Envision after centrifuging plate 30 sec×1000 rpm.

[2] = test system: KRas-mediated Phosphorylation of ERK in H727 cells; assay: HTRF pERK assay, H727 cells; format: cell-based; conditions: Homo sapiens, NCI-H727, 3 hrs compound incubation, read-out: Inhibition (HTRF IC50 nM) of KRas-mediated Phosphorylation of ERK, H727
Experimental: as §3, §4, §5

T4 sequence (P01116 1-169 isoform P01116-2 G12A): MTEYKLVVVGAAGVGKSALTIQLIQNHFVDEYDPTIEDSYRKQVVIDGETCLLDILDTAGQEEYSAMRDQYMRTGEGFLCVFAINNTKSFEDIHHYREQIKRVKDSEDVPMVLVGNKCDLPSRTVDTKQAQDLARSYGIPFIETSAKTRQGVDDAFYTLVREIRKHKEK
T8 sequence (P01116 1-169 isoform P01116-2 G12R): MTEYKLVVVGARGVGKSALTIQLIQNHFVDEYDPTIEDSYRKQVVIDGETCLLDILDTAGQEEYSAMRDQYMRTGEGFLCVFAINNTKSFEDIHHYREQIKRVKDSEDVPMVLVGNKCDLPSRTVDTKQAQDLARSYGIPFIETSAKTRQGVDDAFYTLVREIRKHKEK
T6 sequence (P01116 1-169 isoform P01116-2 G12C): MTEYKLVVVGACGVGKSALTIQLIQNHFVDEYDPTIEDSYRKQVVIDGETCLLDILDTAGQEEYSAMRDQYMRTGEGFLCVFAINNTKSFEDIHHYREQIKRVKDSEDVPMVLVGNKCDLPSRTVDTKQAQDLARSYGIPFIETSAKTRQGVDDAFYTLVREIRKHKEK
T7 sequence (P01116 1-169 isoform P01116-2 Q61H): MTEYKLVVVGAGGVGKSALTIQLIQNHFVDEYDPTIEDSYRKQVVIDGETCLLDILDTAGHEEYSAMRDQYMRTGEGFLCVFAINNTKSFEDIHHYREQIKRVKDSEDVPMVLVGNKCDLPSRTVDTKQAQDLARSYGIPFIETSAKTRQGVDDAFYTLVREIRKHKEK
T3 sequence (P01116 1-169 isoform P01116-2 G12D): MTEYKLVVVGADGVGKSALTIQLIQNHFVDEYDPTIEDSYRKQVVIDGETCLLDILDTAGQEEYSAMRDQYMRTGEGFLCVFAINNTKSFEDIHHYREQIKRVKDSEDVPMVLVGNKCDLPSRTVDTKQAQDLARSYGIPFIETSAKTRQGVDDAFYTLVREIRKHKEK
T2 sequence (P01116 1-169 isoform P01116-2 G12S): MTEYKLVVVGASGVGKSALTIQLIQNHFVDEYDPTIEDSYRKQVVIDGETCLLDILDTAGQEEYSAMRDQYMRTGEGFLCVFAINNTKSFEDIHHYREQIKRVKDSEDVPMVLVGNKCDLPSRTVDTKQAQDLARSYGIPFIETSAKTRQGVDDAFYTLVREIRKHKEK
T1 sequence (P01116 1-169 isoform P01116-2 G12V): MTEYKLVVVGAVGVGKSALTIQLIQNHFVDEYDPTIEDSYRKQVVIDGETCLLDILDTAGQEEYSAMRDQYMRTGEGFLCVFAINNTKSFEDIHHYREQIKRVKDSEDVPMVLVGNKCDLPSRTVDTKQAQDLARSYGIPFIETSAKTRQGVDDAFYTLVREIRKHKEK
T5 sequence (P01116 1-169 isoform P01116-2): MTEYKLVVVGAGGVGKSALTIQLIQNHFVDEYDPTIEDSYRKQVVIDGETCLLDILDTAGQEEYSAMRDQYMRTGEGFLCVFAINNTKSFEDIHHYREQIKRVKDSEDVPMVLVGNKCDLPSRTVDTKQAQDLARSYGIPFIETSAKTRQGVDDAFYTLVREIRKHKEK
T9 sequence (P01116 1-169 isoform P01116-2 G13D): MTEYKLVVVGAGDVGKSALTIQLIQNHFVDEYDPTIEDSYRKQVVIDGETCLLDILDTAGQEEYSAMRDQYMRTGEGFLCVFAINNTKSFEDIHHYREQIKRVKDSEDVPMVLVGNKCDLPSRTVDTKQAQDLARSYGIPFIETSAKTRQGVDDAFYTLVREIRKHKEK

SMILES | IC50 (KRas^G12V) | IC50 (KRas^G12S) | IC50 (KRas^G12D) | IC50 (KRas^G12A) | IC50 (KRas^WT) | IC50 (KRas^G12C) | IC50 (KRas^Q61H) | IC50 (KRas^G12R) | IC50 (KRas^G13D) | IC50 [1] | IC50 [2]
C[C@H](Oc1nc(-c2noc(C3(C)CCCc4sc(N)c(C#N)c43)n2)cc(N2C[C@@H]3C[C@H](C2)[C@H](O)C3)n1)[C@@H]1CCCN1C (stereo partly drawn) [Example 5, 2-amino-4-(3-(6-((1R,5R,6R)-6-hydroxy-3-azabicyclo[3.2.1]octan-3-yl)-2-((S)-1-((S)-1-methylpyrrolidin-2-yl)ethoxy)pyrimidin-4-yl)-1,2,4-oxadiazol-5-yl)-4-methyl-4,5,6,7-tetrahydrobenzo[b]thiophene-3-carbonitrile] | 62 nM | 265 nM | 413 nM | 250 nM | 69 nM | 313 nM | 233 nM | 38 nM | 269 nM | – | –
C[C@H](Oc1nc(-c2noc(C3(C)CCCc4sc(N)c(C#N)c43)n2)cc(N2CCCC3(CNS(=O)(=O)N3)C2)n1)[C@@H]1CCCN1C (stereo partly drawn) [Example 4, 2-amino-4-(3-(6-(2,2-dioxido-2-thia-1,3,7-triazaspiro[4.5]decan-7-yl)-2-((S)-1-((S)-1-methylpyrrolidin-2-yl)ethoxy)pyrimidin-4-yl)-1,2,4-oxadiazol-5-yl)-4-methyl-4,5,6,7-tetrahydrobenzo[b]thiophene-3-carbonitrile] | 5 nM | 23 nM | 6 nM | 29 nM | 10 nM | 26 nM | 26 nM | 4 nM | 24 nM | – | –
C[C@H](Oc1nc(-c2noc(C3(C)CCCc4sc(N)c(C#N)c43)n2)cc(N2CCCn3nc(C(=O)N(C)C)cc3C2)n1)[C@@H]1CCCN1C (stereo partly drawn) [Example 6, 5-(6-(5-(2-amino-3-cyano-4-methyl-4,5,6,7-tetrahydrobenzo[b]thiophen-4-yl)-1,2,4-oxadiazol-3-yl)-2-((S)-1-((S)-1-methylpyrrolidin-2-yl)ethoxy)pyrimidin-4-yl)-N,N-dimethyl-5,6,7,8-tetrahydro-4H-pyrazolo[1,5-a][1,4]diazepine-2-carboxamide] | 746 nM | 1520 nM | 1830 nM | 1590 nM | 474 nM | 1110 nM | 1110 nM | 669 nM | 1080 nM | 7720 nM | > 10000 nM
C[C@H](Oc1nc(-c2noc(C3(C)CCCc4sc(N)c(C#N)c43)n2)cc(N2CCCC3(C2)NC(=O)NC3=O)n1)[C@@H]1CCCN1C (stereo partly drawn) [Example 2, 2-amino-4-(3-(6-(2,4-dioxo-1,3,7-triazaspiro[4.5]decan-7-yl)-2-((S)-1-((S)-1-methylpyrrolidin-2-yl)ethoxy)pyrimidin-4-yl)-1,2,4-oxadiazol-5-yl)-4-methyl-4,5,6,7-tetrahydrobenzo[b]thiophene-3-carbonitrile] | 6 nM | 41 nM | 18 nM | 49 nM | 14 nM | 54 nM | 36 nM | 4 nM | 37 nM | – | –
C[C@H](Oc1nc(-c2cc(C3(C)CCCc4sc(N)c(C#N)c43)sn2)cc(N2CCC[C@@](C)(O)C2)n1)[C@@H]1CCCN1C (stereo partly drawn) [Example 7, 2-amino-4-(3-(6-((R)-3-hydroxy-3-methylpiperidin-1-yl)-2-((S)-1-((S)-1-methylpyrrolidin-2-yl)ethoxy)pyrimidin-4-yl)isothiazol-5-yl)-4-methyl-4,5,6,7-tetrahydrobenzo[b]thiophene-3-carbonitrile] | 46 nM | 158 nM | 127 nM | 132 nM | 129 nM | 174 nM | 170 nM | 23 nM | 128 nM | 5840 nM | 4470 nM
C[C@H](Oc1nc(-c2cc(C3(C)CCCc4sc(N)c(C#N)c43)sn2)cc(N2C[C@H]3CC[C@@H](C2)N3)n1)[C@@H]1CCCN1C (stereo partly drawn) [Example 9, 4-(3-(6-((1R,5S)-3,8-diazabicyclo[3.2.1]octan-3-yl)-2-((S)-1-((S)-1-methylpyrrolidin-2-yl)ethoxy)pyrimidin-4-yl)isothiazol-5-yl)-2-amino-4-methyl-4,5,6,7-tetrahydrobenzo[b]thiophene-3-carbonitrile] | 1040 nM | 3420 nM | 36 nM | 3080 nM | 566 nM | 3490 nM | 2290 nM | 1340 nM | 1320 nM | 3010 nM | ≥ 10000 nM

More lines, now with the values ahead:

IC50 (KRas^G12V) | IC50 (KRas^G12S) | IC50 (KRas^G12D) | IC50 (KRas^G12A) | IC50 (KRas^WT) | IC50 (KRas^G12C) | IC50 (KRas^Q61H) | IC50 (KRas^G12R) | IC50 (KRas^G13D) | IC50 [1] | IC50 [2] | SMILES
96 nM | 296 nM | 505 nM | 204 nM | 160 nM | 275 nM | 224 nM | 59 nM | 167 nM | 7400 nM | 3380 nM | C[C@H](Oc1nc(-c2cc(C3(C)CCCc4sc(N)c(C#N)c43)sn2)cc(N2C[C@@H]3C[C@H](C2)[C@H](O)C3)n1)[C@@H]1CCCN1C (stereo partly drawn) [Example 8, 2-amino-4-(3-(6-((1R,5R,6R)-6-hydroxy-3-azabicyclo[3.2.1]octan-3-yl)-2-((S)-1-((S)-1-methylpyrrolidin-2-yl)ethoxy)pyrimidin-4-yl)isothiazol-5-yl)-4-methyl-4,5,6,7-tetrahydrobenzo[b]thiophene-3-carbonitrile]
163 nM | 596 nM | 623 nM | 551 nM | 417 nM | 457 nM | 533 nM | 156 nM | 584 nM | – | – | C[C@H](Oc1nc(-c2cc(C3(C)CCCc4sc(N)c(C#N)c43)sn2)cc(N2CCCn3nc(C(=O)N(C)C)cc3C2)n1)[C@@H]1CCCN1C (stereo partly drawn) [Example 12, 5-(6-(5-(2-amino-3-cyano-4-methyl-4,5,6,7-tetrahydrobenzo[b]thiophen-4-yl)isothiazol-3-yl)-2-((S)-1-((S)-1-methylpyrrolidin-2-yl)ethoxy)pyrimidin-4-yl)-N,N-dimethyl-5,6,7,8-tetrahydro-4H-pyrazolo[1,5-a][1,4]diazepine-2-carboxamide]
76 nM | 188 nM | 93 nM | 240 nM | 326 nM | 262 nM | 263 nM | 34 nM | 190 nM | – | – | C[C@H](Oc1nc(-c2cc(C3(C)CCCc4sc(N)c(C#N)c43)sn2)cc(N2CCCC3(C2)NC(=O)NC3=O)n1)[C@@H]1CCCN1C (stereo partly drawn) [Example 11, 2-amino-4-(3-(6-(2,4-dioxo-1,3,7-triazaspiro[4.5]decan-7-yl)-2-((S)-1-((S)-1-methylpyrrolidin-2-yl)ethoxy)pyrimidin-4-yl)isothiazol-5-yl)-4-methyl-4,5,6,7-tetrahydrobenzo[b]thiophene-3-carbonitrile]
